How the values were obtained:
Format in all cases: in vivo
[1] = test system: Echinochloa crus-galli (ECHCG); experiment: Pre-emergence herbicidal activity, glasshouse pot test; parameters: key: 5=total damage to plant; 0=no damage to plant; settings: Rate 1000 g/Ha; sprayed one day after sowing; evaluated after 13 days; scale 0-5
Experimental: (§1) Seeds of a variety of test species were sown in standard soil in pots. After cultivation for one day (pre-emergence) under controlled conditions in a glasshouse (at 24/16° C., day/night; 14 hours light; 65% humidity), the plants were sprayed with an aqueous spray solution derived from the formulation of the technical active ingredient in acetone/water (50:50) solution containing 0.5% Tween 20 (polyoxyethelyene sorbitan monolaurate, CAS RN 9005-64-5). The test plants were then grown in a glasshouse under controlled conditions (at 24/16° C., day/night; 14 hours light; 65% humidity) and watered twice daily. After 13 days, the test was evaluated (5=total damage to plant; 0=no damage to plant).

Setaria faberi (SETFA) [2] = experiment: as above; parameters: key: 5=total damage to plant; 0=no damage to plant; settings: Rate 1000 g/Ha; sprayed one day after sowing; evaluated after 13 days; scale 0-5
Experimental: as §1

[3] = test system: Abutilon theophrasti (ABUTH); experiment: as above; parameters: key: 5=total damage to plant; 0=no damage to plant; settings: Rate 1000 g/Ha; sprayed one day after sowing; evaluated after 13 days; scale 0-5
Experimental: as §1

[4] = test system: Amaranthus retroflexus (AMARE); experiment: as above; parameters: key: 5=total damage to plant; 0=no damage to plant; settings: Rate 1000 g/Ha; sprayed one day after sowing; evaluated after 13 days; scale 0-5
Experimental: as §1

[5] = test system: Echinochloa crus-galli (ECHCG); experiment: Post-emergence herbicidal activity, glasshouse pot test; parameters: key: 5=total damage to plant; 0=no damage to plant; settings: Rate 1000 g/Ha; sprayed after 8 days cultivation; evaluated after 13 days; scale 0-5
Experimental: (§2) Seeds of a variety of test species were sown in standard soil in pots. After 8 days cultivation (post-emergence) under controlled conditions in a glasshouse (at 24/16° C., day/night; 14 hours light; 65% humidity), the plants were sprayed with an aqueous spray solution derived from the formulation of the technical active ingredient in acetone/water (50:50) solution containing 0.5% Tween 20 (polyoxyethelyene sorbitan monolaurate, CAS RN 9005-64-5). The test plants were then grown in a glasshouse under controlled conditions (at 24/16° C., day/night; 14 hours light; 65% humidity) and watered twice daily. After 13 days, the test was evaluated (5=total damage to plant; 0=no damage to plant).

Zea mays (ZEAMX) [6] = experiment: as above; parameters: key: 5=total damage to plant; 0=no damage to plant; settings: Rate 1000 g/Ha; sprayed after 8 days cultivation; evaluated after 13 days; scale 0-5
Experimental: as §2

Setaria faberi (SETFA) [7] = experiment: as above; parameters: key: 5=total damage to plant; 0=no damage to plant; settings: Rate 1000 g/Ha; sprayed after 8 days cultivation; evaluated after 13 days; scale 0-5
Experimental: as §2

[8] = test system: Abutilon theophrasti (ABUTH); experiment: as above; parameters: key: 5=total damage to plant; 0=no damage to plant; settings: Rate 1000 g/Ha; sprayed after 8 days cultivation; evaluated after 13 days; scale 0-5
Experimental: as §2

[9] = test system: Amaranthus retroflexus (AMARE); experiment: as above; parameters: key: 5=total damage to plant; 0=no damage to plant; settings: Rate 1000 g/Ha; sprayed after 8 days cultivation; evaluated after 13 days; scale 0-5
Experimental: as §2

Zea mays (ZEAMX) [10] = experiment: Pre-emergence herbicidal activity, glasshouse pot test; settings: Rate 1000 g/Ha; sprayed one day after sowing; evaluated after 13 days; scale 0-5
Experimental: as §1

## C[C@@H]1C(O)N(c2cc(C(C)(C)F)no2)C(=O)N1C (stereo partly shown) [Compound A20]
[1]
  ECHCG damage score, application pre-emergence: 5
Setaria faberi (SETFA) [2]
  SETFA damage score, application pre-emergence: 4
[3]
  ABUTH damage score, application pre-emergence: 5
[4]
  AMARE damage score, application pre-emergence: 5
[5]
  ECHCG damage score, application post-emergence: 5
Zea mays (ZEAMX) [6]
  ZEAMX damage score, application post-emergence: 4
Setaria faberi (SETFA) [7]
  SETFA damage score, application post-emergence: 5
[8]
  ABUTH damage score, application post-emergence: 5
[9]
  AMARE damage score, application post-emergence: 5
Zea mays (ZEAMX) [10]
  ZEAMX damage score, application pre-emergence: 3

## C#CCC1C(O)N(c2cc(C(C)(C)C)on2)C(=O)N1CC#C (stereo not shown) [Compound A23]
[1]
  ECHCG damage score, application pre-emergence: 4
Setaria faberi (SETFA) [2]
  SETFA damage score, application pre-emergence: 5
[3]
  ABUTH damage score, application pre-emergence: 5
[4]
  AMARE damage score, application pre-emergence: 5
[5]
  ECHCG damage score, application post-emergence: 5
Zea mays (ZEAMX) [10]
  ZEAMX damage score, application pre-emergence: 2

## CC(C)(C)c1cc(N2C(=O)N3CCCC3C2O)no1 (stereo not shown) [Compound A25]
[1]
  ECHCG damage score, application pre-emergence: 5
Setaria faberi (SETFA) [2]
  SETFA damage score, application pre-emergence: 4
[3]
  ABUTH damage score, application pre-emergence: 5
[4]
  AMARE damage score, application pre-emergence: 5
[5]
  ECHCG damage score, application post-emergence: 5
Zea mays (ZEAMX) [6]
  ZEAMX damage score, application post-emergence: 5
Setaria faberi (SETFA) [7]
  SETFA damage score, application post-emergence: 5
[8]
  ABUTH damage score, application post-emergence: 5
[9]
  AMARE damage score, application post-emergence: 5
Zea mays (ZEAMX) [10]
  ZEAMX damage score, application pre-emergence: 4

## C#CCN1CC(O)N(c2cc(C(C)(C)C)on2)C1=O (stereo not shown) [Compound A24]
[1]
  ECHCG damage score, application pre-emergence: 5
Setaria faberi (SETFA) [2]
  SETFA damage score, application pre-emergence: 5
[3]
  ABUTH damage score, application pre-emergence: 5
[4]
  AMARE damage score, application pre-emergence: 5
[5]
  ECHCG damage score, application post-emergence: 5
Zea mays (ZEAMX) [10]
  ZEAMX damage score, application pre-emergence: 3

## CON1C(=O)N(c2cc(C(C)(C)OC)on2)C(O)C1C (stereo not shown) [Compound A13]
[1]
  ECHCG damage score, application pre-emergence: 5
Setaria faberi (SETFA) [2]
  SETFA damage score, application pre-emergence: 5
[3]
  ABUTH damage score, application pre-emergence: 5
[4]
  AMARE damage score, application pre-emergence: 5
[5]
  ECHCG damage score, application post-emergence: 5
Zea mays (ZEAMX) [6]
  ZEAMX damage score, application post-emergence: 4
Setaria faberi (SETFA) [7]
  SETFA damage score, application post-emergence: 5
[8]
  ABUTH damage score, application post-emergence: 5
[9]
  AMARE damage score, application post-emergence: 5
Zea mays (ZEAMX) [10]
  ZEAMX damage score, application pre-emergence: 2

## CCOC1C(O)N(c2cc(C(C)(C)F)no2)C(=O)N1C (stereo not shown) [Compound A19]
[1]
  ECHCG damage score, application pre-emergence: 5
Setaria faberi (SETFA) [2]
  SETFA damage score, application pre-emergence: 4
[3]
  ABUTH damage score, application pre-emergence: 4
[4]
  AMARE damage score, application pre-emergence: 5
[5]
  ECHCG damage score, application post-emergence: 5
Zea mays (ZEAMX) [6]
  ZEAMX damage score, application post-emergence: 4
Setaria faberi (SETFA) [7]
  SETFA damage score, application post-emergence: 5
[8]
  ABUTH damage score, application post-emergence: 5
[9]
  AMARE damage score, application post-emergence: 5
Zea mays (ZEAMX) [10]
  ZEAMX damage score, application pre-emergence: 2

## COC(C)(C)c1cc(N2C(=O)N(C)[C@H](C)C2O)no1 (stereo partly shown) [Compound A12]
[1]
  ECHCG damage score, application pre-emergence: 5
Setaria faberi (SETFA) [2]
  SETFA damage score, application pre-emergence: 5
[3]
  ABUTH damage score, application pre-emergence: 5
[4]
  AMARE damage score, application pre-emergence: 5
[5]
  ECHCG damage score, application post-emergence: 5
Zea mays (ZEAMX) [6]
  ZEAMX damage score, application post-emergence: 4
Setaria faberi (SETFA) [7]
  SETFA damage score, application post-emergence: 5
[8]
  ABUTH damage score, application post-emergence: 5
[9]
  AMARE damage score, application post-emergence: 5
Zea mays (ZEAMX) [10]
  ZEAMX damage score, application pre-emergence: 3

## CC(C)(C)c1cc(N2C(=O)N3COCC3C2O)no1 (stereo not shown) [Compound A21]
[1]
  ECHCG damage score, application pre-emergence: 5
Setaria faberi (SETFA) [2]
  SETFA damage score, application pre-emergence: 5
[3]
  ABUTH damage score, application pre-emergence: 5
[4]
  AMARE damage score, application pre-emergence: 5
[5]
  ECHCG damage score, application post-emergence: 5
Zea mays (ZEAMX) [6]
  ZEAMX damage score, application post-emergence: 4
Setaria faberi (SETFA) [7]
  SETFA damage score, application post-emergence: 5
[8]
  ABUTH damage score, application post-emergence: 5
[9]
  AMARE damage score, application post-emergence: 5
Zea mays (ZEAMX) [10]
  ZEAMX damage score, application pre-emergence: 3

## COCC1C(O)N(c2cc(C(C)(C)OC)on2)C(=O)N1C (stereo not shown) [Compound A15]
[1]
  ECHCG damage score, application pre-emergence: 5
Setaria faberi (SETFA) [2]
  SETFA damage score, application pre-emergence: 5
[3]
  ABUTH damage score, application pre-emergence: 5
[4]
  AMARE damage score, application pre-emergence: 5
[5]
  ECHCG damage score, application post-emergence: 5
Zea mays (ZEAMX) [6]
  ZEAMX damage score, application post-emergence: 3
Setaria faberi (SETFA) [7]
  SETFA damage score, application post-emergence: 5
[8]
  ABUTH damage score, application post-emergence: 5
[9]
  AMARE damage score, application post-emergence: 5
Zea mays (ZEAMX) [10]
  ZEAMX damage score, application pre-emergence: 2

## CCOC1C(O)N(c2cc(C(C)(C)OC)on2)C(=O)N1C (stereo not shown) [Compound A14]
[1]
  ECHCG damage score, application pre-emergence: 5
Setaria faberi (SETFA) [2]
  SETFA damage score, application pre-emergence: 5
[3]
  ABUTH damage score, application pre-emergence: 5
[4]
  AMARE damage score, application pre-emergence: 5
[5]
  ECHCG damage score, application post-emergence: 5
Zea mays (ZEAMX) [6]
  ZEAMX damage score, application post-emergence: 4
Setaria faberi (SETFA) [7]
  SETFA damage score, application post-emergence: 5
[8]
  ABUTH damage score, application post-emergence: 5
[9]
  AMARE damage score, application post-emergence: 5
Zea mays (ZEAMX) [10]
  ZEAMX damage score, application pre-emergence: 2

## C#CCN1C(=O)N(c2cc(C(C)(C)C)on2)C(O)C1C (single isomer, unassigned) [Compound A22]
[1]
  ECHCG damage score, application pre-emergence: 5
Setaria faberi (SETFA) [2]
  SETFA damage score, application pre-emergence: 5
[3]
  ABUTH damage score, application pre-emergence: 5
[4]
  AMARE damage score, application pre-emergence: 5
[5]
  ECHCG damage score, application post-emergence: 5
Zea mays (ZEAMX) [6]
  ZEAMX damage score, application post-emergence: 5
Setaria faberi (SETFA) [7]
  SETFA damage score, application post-emergence: 5
[8]
  ABUTH damage score, application post-emergence: 5
[9]
  AMARE damage score, application post-emergence: 5
Zea mays (ZEAMX) [10]
  ZEAMX damage score, application pre-emergence: 3

## COC(C)(C)c1cc(N2C(=O)N(C)CC2O)no1 (stereo not shown) [Compound A9]
[1]
  ECHCG damage score, application pre-emergence: 5
Setaria faberi (SETFA) [2]
  SETFA damage score, application pre-emergence: 5
[3]
  ABUTH damage score, application pre-emergence: 5
[4]
  AMARE damage score, application pre-emergence: 5
[5]
  ECHCG damage score, application post-emergence: 5
Zea mays (ZEAMX) [6]
  ZEAMX damage score, application post-emergence: 5
Setaria faberi (SETFA) [7]
  SETFA damage score, application post-emergence: 5
[8]
  ABUTH damage score, application post-emergence: 5
[9]
  AMARE damage score, application post-emergence: 5
Zea mays (ZEAMX) [10]
  ZEAMX damage score, application pre-emergence: 3

## CN1CC(O)N(c2cc(C(C)(C)O)on2)C1=O (stereo not shown) [Compound A11]
[1]
  ECHCG damage score, application pre-emergence: 5
Setaria faberi (SETFA) [2]
  SETFA damage score, application pre-emergence: 4
[3]
  ABUTH damage score, application pre-emergence: 5
[4]
  AMARE damage score, application pre-emergence: 5
[5]
  ECHCG damage score, application post-emergence: 5
Zea mays (ZEAMX) [6]
  ZEAMX damage score, application post-emergence: 3
Setaria faberi (SETFA) [7]
  SETFA damage score, application post-emergence: 4
[8]
  ABUTH damage score, application post-emergence: 5
[9]
  AMARE damage score, application post-emergence: 5
Zea mays (ZEAMX) [10]
  ZEAMX damage score, application pre-emergence: 2

## COC(C)(C)c1cc(N2C(=O)N(C)C(C)C2O)no1 (stereo not shown) [Compound A10]
[1]
  ECHCG damage score, application pre-emergence: 5
Setaria faberi (SETFA) [2]
  SETFA damage score, application pre-emergence: 5
[3]
  ABUTH damage score, application pre-emergence: 5
[4]
  AMARE damage score, application pre-emergence: 5
[5]
  ECHCG damage score, application post-emergence: 5
Zea mays (ZEAMX) [6]
  ZEAMX damage score, application post-emergence: 5
Setaria faberi (SETFA) [7]
  SETFA damage score, application post-emergence: 5
[8]
  ABUTH damage score, application post-emergence: 5
[9]
  AMARE damage score, application post-emergence: 5
Zea mays (ZEAMX) [10]
  ZEAMX damage score, application pre-emergence: 3

## CN1CC(O)N(c2cc(C(C)(C)F)no2)C1=O (stereo not shown) [Compound A16]
[1]
  ECHCG damage score, application pre-emergence: 5
Setaria faberi (SETFA) [2]
  SETFA damage score, application pre-emergence: 5
[3]
  ABUTH damage score, application pre-emergence: 5
[4]
  AMARE damage score, application pre-emergence: 5
[5]
  ECHCG damage score, application post-emergence: 5
Zea mays (ZEAMX) [6]
  ZEAMX damage score, application post-emergence: 5
Setaria faberi (SETFA) [7]
  SETFA damage score, application post-emergence: 5
[8]
  ABUTH damage score, application post-emergence: 5
[9]
  AMARE damage score, application post-emergence: 5
Zea mays (ZEAMX) [10]
  ZEAMX damage score, application pre-emergence: 2
